This is an account of results in ChEMBL document CHEMBL1155322, “Pharmacophore modeling and virtual screening for the discovery of new transforming growth factor-beta type I receptor (ALK5) inhibitors” (Eur J Med Chem, 2009).

The test addresses T1, TGF-beta receptor type-1 (Homo sapiens, UniProt P36897).
T1 sequence (P36897 whole entry): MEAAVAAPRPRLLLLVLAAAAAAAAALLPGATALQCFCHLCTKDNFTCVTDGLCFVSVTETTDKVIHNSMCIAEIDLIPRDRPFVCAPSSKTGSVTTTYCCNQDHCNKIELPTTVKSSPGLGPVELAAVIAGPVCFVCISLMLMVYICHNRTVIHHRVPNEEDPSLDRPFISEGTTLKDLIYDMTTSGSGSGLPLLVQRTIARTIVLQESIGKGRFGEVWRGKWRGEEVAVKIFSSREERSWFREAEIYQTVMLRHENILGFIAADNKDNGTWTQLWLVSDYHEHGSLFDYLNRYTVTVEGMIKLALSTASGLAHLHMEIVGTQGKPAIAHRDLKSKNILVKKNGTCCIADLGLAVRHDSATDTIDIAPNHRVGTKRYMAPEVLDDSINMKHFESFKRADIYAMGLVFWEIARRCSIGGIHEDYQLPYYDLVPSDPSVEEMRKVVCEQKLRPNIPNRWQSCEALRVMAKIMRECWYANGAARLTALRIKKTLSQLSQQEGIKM
As for `CCSc1ccc2c(-c3c(-c4ccccn4)nn4c3CCC4)ccnc2c1`, the IC50 is 110 nM.
On to `CCOc1ccc2c(-c3c(-c4cccc(C)n4)nn4c3CCC4)ccnc2c1`, for which the IC50 came to 88 nM.
The figure for `c1ccc(-c2nn3c(c2-c2ccnc4ccccc24)CCC3)nc1` is 104 nM; for `CCc1cccc(-c2nn3c(c2-c2ccnc4ccccc24)CCC3)n1` it is 71 nM; for `c1ccc(-c2n[nH]cc2-c2ccc3ncccc3n2)nc1` it is 19 nM.
`Cc1cccc(-c2[nH]c(CNc3ccc(C#N)cc3)nc2-c2ccc3c(c2)OCO3)n1` came in with a half-inhibitory concentration (IC50) of 46 nM.
In the case of `Cc1cccc(-c2[nH]c(CNc3ccc(C(N)=O)cc3)nc2-c2ccc3c(c2)OCO3)n1` it was 21 nM; in that of `CN(C)CC(=O)Nc1ccc2c(-c3c(-c4ccccn4)nn4c3CCC4)ccnc2c1`, 64 nM.
In the case of `Fc1ccc(-c2nn3c(c2-c2ccnc4ccccc24)CCC3)nc1` it was 151 nM.
With `CCS(=O)(=O)c1ccc2c(-c3c(-c4ccccn4)nn4c3CCC4)ccnc2c1`, it took 9290 nM to reach half-maximal inhibition (IC50).
The figure for `Cc1cccc(-c2nn3c(c2-c2ccnc4cc(Cl)ccc24)CCC3)n1` is 48 nM; for `C#Cc1cccc(NCc2nc(-c3ccc4nccnc4c3)c(-c3cccc(CC)n3)[nH]2)c1` it is 119 nM; for `C#Cc1ccc(CNc2nc(-c3ccc4c(c3)OCO4)c(-c3cccc(C)n3)[nH]2)cc1` it is 153 nM.
The figure for `C#Cc1ccc(NCc2nc(-c3ccc4c(c3)OCO4)c(-c3cccc(C)n3)[nH]2)cc1` is 174 nM.
Compound `CCc1cccc(-c2[nH]c(CNc3ccc(C(N)=O)cc3)nc2-c2ccc3c(c2)OCO3)n1` returned a 50% inhibitory concentration (IC50) of 46 nM.
Compound `Cc1cccc(-c2[nH]c(NCc3ccc(C#N)cc3)nc2-c2ccc3c(c2)OCO3)n1` displayed an IC50 of 24 nM.
The compound `Cc1cccc2ccc(-c3sc(N)nc3-c3ccccn3)nc12` had an IC50 of 30 nM.
The figure for `CN(C)CCCn1cnc2cc(-c3c(-c4ccccn4)nn4c3CCC4)ccc21` is 398 nM.
Regarding `COCCC(=O)Nc1ccc2c(-c3c(-c4ccccn4)nn4c3CCC4)ccnc2c1`, the IC50 worked out at 34 nM.
For `CN(C)CCNC(=O)Nc1ccc2c(-c3c(-c4ccccn4)nn4c3CCC4)ccnc2c1`, the IC50 was 18 nM.
In the case of `CC(=O)Nc1ccc2c(-c3c(-c4ccccn4)nn4c3CCC4)ccnc2c1` it was 87 nM; in that of `c1ccc(-c2n[nH]cc2-c2ccnc(-c3ccc(CNC4CCCOC4)cc3)c2)nc1` (stereo unspecified), 47 nM.
Compound `O=C(Nc1ccc2c(-c3c(-c4ccccn4)nn4c3CCC4)ccnc2c1)OCCO` came in with an IC50 of 79 nM.
As for `Fc1ccc(C2C(c3ccncc3)NC3SCCN32)cc1` (stereo unspecified), the IC50 is 50000 nM.
Compound `CN(C)CCCc1cccc(-c2cc(-c3c[nH]nc3-c3ccccn3)ccn2)c1` yielded a concentration for half-maximal inhibition (IC50) of 15 nM.
For `O=C(O)c1ccc(-c2cc(-c3c[nH]nc3-c3ccccn3)ccn2)cc1`, the IC50 stood at 27 nM.
Turning to `Cc1cccnc1-c1nc(N)sc1-c1ccc2ncccc2n1`, 6 nM corresponded to half-maximal inhibition (IC50).
For `Nc1nc(-c2cccc(Cl)n2)c(-c2ccnc3ccccc23)s1`, the half-maximal inhibitory concentration (IC50) worked out at 1780 nM.
In turn, `Cc1cccc(-c2nn3c(c2-c2ccc4c(c2)ncn4C)CCC3)n1` came in with an IC50 of 1700 nM.
In the case of `COC(=O)Nc1ccc2c(-c3c(-c4ccccn4)nn4c3CCC4)ccnc2c1` it was 40 nM.
In turn, `CN(C)CCCNC(=O)Nc1ccc2c(-c3c(-c4ccccn4)nn4c3CCC4)ccnc2c1` displayed an IC50 of 255 nM.
In the case of `O=C(CCO)Nc1ccc2c(-c3c(-c4ccccn4)nn4c3CCC4)ccnc2c1` it was 32 nM; in that of `Nc1ccc2c(-c3c(-c4ccccn4)nn4c3CCC4)ccnc2c1`, 59 nM; in that of `Nc1nc(-c2cccc(Cl)c2)c(-c2ccc3ncccc3n2)s1` [GW780159X], 13 nM.
The figure for `Nc1nc(-c2ccc(F)cc2)c(-c2ccc3ncccc3n2)s1` [GW785804X] is 11 nM; for `CCc1[nH]c(-c2ccc(OC)cc2)nc1-c1ccncc1` [SB-202474] it is 30000 nM.
